Experimental data as given in patent US12479840B2, “HMG-CoA reductase degradation inducing compound” (Uppthera, priority 2020, dated 2025).

Molecular target: T1, HMG-CoA reductase (Homo sapiens, UniProt P04035)
T1 construct: endogenous in cells; host or cells: HepG2 (Korea Cell Line Bank)
T1 sequence (P04035 1-888): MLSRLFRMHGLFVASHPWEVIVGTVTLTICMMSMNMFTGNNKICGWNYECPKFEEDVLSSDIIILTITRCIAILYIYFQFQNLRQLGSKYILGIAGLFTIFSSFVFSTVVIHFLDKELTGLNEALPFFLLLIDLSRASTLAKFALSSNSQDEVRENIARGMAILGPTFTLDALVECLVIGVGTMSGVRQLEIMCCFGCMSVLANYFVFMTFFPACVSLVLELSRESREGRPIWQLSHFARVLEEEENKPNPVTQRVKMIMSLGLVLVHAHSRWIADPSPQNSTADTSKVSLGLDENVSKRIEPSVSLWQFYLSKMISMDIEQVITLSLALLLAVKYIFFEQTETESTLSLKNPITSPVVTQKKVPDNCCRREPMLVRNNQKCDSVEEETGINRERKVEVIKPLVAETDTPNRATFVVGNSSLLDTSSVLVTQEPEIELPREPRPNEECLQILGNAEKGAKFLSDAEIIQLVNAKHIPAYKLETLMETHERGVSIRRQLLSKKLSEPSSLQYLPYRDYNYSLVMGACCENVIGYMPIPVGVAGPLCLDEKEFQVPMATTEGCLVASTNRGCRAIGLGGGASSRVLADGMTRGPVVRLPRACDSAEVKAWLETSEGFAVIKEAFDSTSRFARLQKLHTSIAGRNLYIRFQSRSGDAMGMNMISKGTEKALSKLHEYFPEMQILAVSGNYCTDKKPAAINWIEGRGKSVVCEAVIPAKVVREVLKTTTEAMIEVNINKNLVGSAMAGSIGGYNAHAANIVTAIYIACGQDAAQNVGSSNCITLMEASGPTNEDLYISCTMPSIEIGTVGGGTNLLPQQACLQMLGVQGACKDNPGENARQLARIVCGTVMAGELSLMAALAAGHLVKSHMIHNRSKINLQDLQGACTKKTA
Experiment: HMG-CoA reductase (HMGCR) degradation in HepG2 cells by western blotting
Type: cell-based
Conditions: treated for 18 hours, ratio of HMG-CoA reductase to GAPDH, read-out: DC50
How it was run: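 HepG2 cells (passage P105–P110) treated 18 hours with compounds in 10-point three-fold dilutions from 3 μM. RIPA lysates (15 μg protein, BCA-quantified) run on SDS-PAGE and immunoblotted for HMGCR (1:500) with GAPDH (1:20000) as loading control, primary antibodies 16 hours at 4° C.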

| Compound | DC50 |
| --- | --- |
| C[C@H]1C=C2C=C[C@H](C)[C@H](CC[C@@H]3C[C@@H](O[Si](C)(C)C(C)(C)C)CC(=O)O3)[C@H]2[C@@H](OC(=O)NCCCCCCCNc2cccc3c2C(=O)N(C2CCC(=O)NC2=O)C3=O)C1 (stereo partly drawn) [Compound 53, (1S,3R,7S,8S,8aR)-8-(2-((2R,4R)-4-((tert-butyldimethylsilyl)oxy)-6-oxotetrahydro-2H-pyran-2-yl)ethyl)-3,7-dimethyl-1,2,3,7,8,8a-hexahydronaphthalen-1-yl (7-((2-(2,6-dioxopiperidin-3-yl)-1,3-dioxoisoindolin-4-yl)amino)heptyl)carbamate] | < 50 nM |
| C[C@H]1C=C2C=C[C@H](C)[C@H](CC[C@@H]3C[C@@H](O)CC(=O)O3)[C@H]2[C@@H](OC(=O)NCCOCCOCCOCCNc2cccc3c2C(=O)N(C2CCC(=O)NC2=O)C3=O)C1 (stereo partly drawn) [Compound 41, (1S,3R,7S,8S,8aR)-8-(2-((2R,4R)-4-hydroxy-6-oxotetrahydro-2H-pyran-2-yl)ethyl)-3,7-dimethyl-1,2,3,7,8,8a-hexahydronaphthalen-1-yl (2-(2-(2-(2-((2-(2,6-dioxopiperidin-3-yl)-1,3-dioxoisoindolin-4-yl)amino)ethoxy)ethoxy)ethoxy)ethyl)carbamate] | < 50 nM |
| C[C@H]1C=C2C=C[C@H](C)[C@H](CC[C@@H]3C[C@@H](O)CC(=O)O3)[C@H]2[C@@H](OC(=O)NCCc2ccc(CC(=O)Nc3cccc4c3C(=O)N(C3CCC(=O)NC3=O)C4=O)cc2)C1 (stereo partly drawn) [Compound 147, (1S,3R,7S,8S,8aR)-8-(2-((2R,4R)-4-hydroxy-6-oxotetrahydro-2H-pyran-2-yl)ethyl)-3,7-dimethyl-1,2,3,7,8,8a-hexahydronaphthalen-1-yl (4-(2-((2-(2,6-dioxopiperidin-3-yl)-1,3-dioxoisoindolin-4-yl)amino)-2-oxoethyl)phenethyl)carbamate] | < 50 nM |
| CC(C)[Si](O[C@H]1CC(=O)O[C@H](CC[C@@H]2[C@@H]3C(=C[C@H](C)C[C@@H]3OC(=O)NCCOCCOCCNc3cccc4c3C(=O)N(C3CCC(=O)NC3=O)C4=O)C=C[C@@H]2C)C1)(C(C)C)C(C)C (stereo partly drawn) [Compound 70, (1S,3R,7S,8S,8aR)-3,7-dimethyl-8-(2-((2R,4R)-6-oxo-4-((triisopropylsilyl)oxy)tetrahydro-2H-pyran-2-yl)ethyl)-1,2,3,7,8,8a-hexahydronaphthalen-1-yl (2-(2-(2-((2-(2,6-dioxopiperidin-3-yl)-1,3-dioxoisoindolin-4-yl)amino)ethoxy)ethoxy)ethyl)carbamate] | < 50 nM |
| C[C@H]1C=C2C=C[C@H](C)[C@H](CC[C@@H]3C[C@@H](O[Si](C)(C)C(C)(C)C)CC(=O)O3)[C@H]2[C@@H](OC(=O)NCCC2CCN(C(=O)COc3cccc4c3C(=O)N(C3CCC(=O)NC3=O)C4=O)CC2)C1 (stereo partly drawn) [Compound 80, (1S,3R,7S,8S,8aR)-8-(2-((2R,4R)-4-((tert-butyldimethylsilyl)oxy)-6-oxotetrahydro-2H-pyran-2-yl)ethyl)-3,7-dimethyl-1,2,3,7,8,8a-hexahydronaphthalen-1-yl (2-(1-(2-((2-(2,6-dioxopiperidin-3-yl)-1,3-dioxoisoindolin-4-yl)oxy)acetyl)piperidin-4-yl)ethyl)carbamate] | < 50 nM |
| C[C@H]1C=C2C=C[C@H](C)[C@H](CC[C@@H]3C[C@@H](O)CC(=O)O3)[C@H]2[C@@H](OC(=O)C(C)(C)CCC(=O)NCCOCCOCCOCCNc2cccc3c2C(=O)N(C2CCC(=O)NC2=O)C3=O)C1 (stereo partly drawn) [Compound 3, (1S,3R,7S,8S,8aR)-8-(2-((2R,4R)-4-hydroxy-6-oxotetrahydro-2H-pyran-2-yl)ethyl)-3,7-dimethyl-1,2,3,7,8,8a-hexahydronaphthalen-1-yl 1-((2-(2,6-dioxopiperidin-3-yl)-1,3-dioxoisoindolin-4-yl)amino)-16,16-dimethyl-13-oxo-3,6,9-trioxa-12-azaheptadecan-17-oate] | < 50 nM |
| C[C@H]1C=C2C=C[C@H](C)[C@H](CC[C@@H]3C[C@@H](O)CC(=O)O3)[C@H]2[C@@H](OC(=O)NCCCCCCCCCCNc2cccc3c2C(=O)N(C2CCC(=O)NC2=O)C3=O)C1 (stereo partly drawn) [Compound 63, (1S,3R,7S,8S,8aR)-8-(2-((2R,4R)-4-hydroxy-6-oxotetrahydro-2H-pyran-2-yl)ethyl)-3,7-dimethyl-1,2,3,7,8,8a-hexahydronaphthalen-1-yl (10-((2-(2,6-dioxopiperidin-3-yl)-1,3-dioxoisoindolin-4-yl)amino)decyl)carbamate] | < 50 nM |
| C[C@H]1C=C2C=C[C@H](C)[C@H](CC[C@@H]3C[C@@H](O[Si](C)(C)C(C)(C)C)CC(=O)O3)[C@H]2[C@@H](OC(=O)NCCCCCCCCCNc2cccc3c2C(=O)N(C2CCC(=O)NC2=O)C3=O)C1 (stereo partly drawn) [Compound 55, (1S,3R,7S,8S,8aR)-8-(2-((2R,4R)-4-((tert-butyldimethylsilyl)oxy)-6-oxotetrahydro-2H-pyran-2-yl)ethyl)-3,7-dimethyl-1,2,3,7,8,8a-hexahydronaphthalen-1-yl (9-((2-(2,6-dioxopiperidin-3-yl)-1,3-dioxoisoindolin-4-yl)amino)nonyl)carbamate] | < 50 nM |
| Cc1ncsc1-c1ccc(CNC(=O)[C@@H]2C[C@@H](O)CN2C(=O)[C@@H](NC(=O)C2(F)CC2)C(C)(C)C)c(OCCOCCNC(=O)O[C@H]2C[C@@H](C)C=C3C=C[C@H](C)[C@H](CC[C@@H]4C[C@@H](O[Si](C)(C)C(C)(C)C)CC(=O)O4)[C@H]32)c1 [Compound 27, (1S,3R,7S,8S,8aR)-8-(2-((2R,4R)-4-((tert-butyldimethylsilyl)oxy)-6-oxotetrahydro-2H-pyran-2-yl)ethyl)-3,7-dimethyl-1,2,3,7,8,8a-hexahydronaphthalen-1-yl (2-(2-(2-(((2S,4R)-1-((S)-2-(1-fluorocyclopropane-1-carboxamido)-3,3-dimethylbutanoyl)-4-hydroxypyrrolidine-2-carboxamido)methyl)-5-(4-methylthiazol-5-yl)phenoxy)ethoxy)ethyl)carbamate] | < 50 nM |
| C[C@H]1C=C2C=C[C@H](C)[C@H](CC[C@@H]3C[C@@H](O[Si](C)(C)C(C)(C)C)CC(=O)O3)[C@H]2[C@@H](OC(=O)NCCOCCOCCNc2cccc3c2C(=O)N(C2CCC(=O)NC2=O)C3=O)C1 (stereo partly drawn) [Compound 46, (1S,3R,7S,8S,8aR)-8-(2-((2R,4R)-4-((tert-butyldimethylsilyl)oxy)-6-oxotetrahydro-2H-pyran-2-yl)ethyl)-3,7-dimethyl-1,2,3,7,8,8a-hexahydronaphthalen-1-yl (2-(2-(2-((2-(2,6-dioxopiperidin-3-yl)-1,3-dioxoisoindolin-4-yl)amino)ethoxy)ethoxy)ethyl)carbamate] | < 50 nM |
| C[C@H]1C=C2C=C[C@H](C)[C@H](CC[C@@H]3C[C@@H](O[Si](C)(C)C(C)(C)C)CC(=O)O3)[C@H]2[C@@H](OC(=O)NCCOCCOCCOCCOCCNc2cccc3c2C(=O)N(C2CCC(=O)NC2=O)C3=O)C1 (stereo partly drawn) [Compound 48, (1S,3R,7S,8S,8aR)-8-(2-((2R,4R)-4-((tert-butyldimethylsilyl)oxy)-6-oxotetrahydro-2H-pyran-2-yl)ethyl)-3,7-dimethyl-1,2,3,7,8,8a-hexahydronaphthalen-1-yl (14-((2-(2,6-dioxopiperidin-3-yl)-1,3-dioxoisoindolin-4-yl)amino)-3,6,9,12-tetraoxatetradecyl)carbamate] | < 50 nM |
| Cc1ncsc1-c1ccc(CNC(=O)[C@@H]2C[C@@H](O)CN2C(=O)[C@@H](NC(=O)COCCOCCOCCOCCNC(=O)O[C@H]2C[C@@H](C)C=C3C=C[C@H](C)[C@H](CC[C@@H]4C[C@@H](O[Si](C)(C)C(C)(C)C)CC(=O)O4)[C@H]32)C(C)(C)C)cc1 [Compound 21, (1S,3R,7S,8S,8aR)-8-(2-((2R,4R)-4-((tert-butyldimethylsilyl)oxy)-6-oxotetrahydro-2H-pyran-2-yl)ethyl)-3,7-dimethyl-1,2,3,7,8,8a-hexahydronaphthalen-1-yl ((S)-16-((2S,4R)-4-hydroxy-2-((4-(4-methylthiazol-5-yl)benzyl)carbamoyl)pyrrolidine-1-carbonyl)-17,17-dimethyl-14-oxo-3,6,9,12-tetraoxa-15-azaoctadecyl)carbamate] | < 50 nM |
| C[C@H]1C=C2C=C[C@H](C)[C@H](CC[C@@H]3C[C@@H](O)CC(=O)O3)[C@H]2[C@@H](OC(=O)NCCOCCOCCOCCOCCOCCOCCNc2cccc3c2C(=O)N(C2CCC(=O)NC2=O)C3=O)C1 (stereo partly drawn) [Compound 44, (1S,3R,7S,8S,8aR)-8-(2-((2R,4R)-4-hydroxy-6-oxotetrahydro-2H-pyran-2-yl)ethyl)-3,7-dimethyl-1,2,3,7,8,8a-hexahydronaphthalen-1-yl (20-((2-(2,6-dioxopiperidin-3-yl)-1,3-dioxoisoindolin-4-yl)amino)-3,6,9,12,15,18-hexaoxaicosyl)carbamate] | < 50 nM |
